According to publication PMC11876601 (Molecular Systems Biology, 2025):
Read-outs that look alike come from different tables or passages of the source.

Legend:
Assay in all cases: cells
PANC-1 [1] = tested on: PANC-1; design: Viability of PDAC cell lines, ATPlite luminescence, 11-dose single-agent curve fit; conditions: Homo sapiens, PANC-1, 72 h, read-out: EC50 [nM]
How it was run: (§1)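 cells (1000 to 5000 per well) seeded 24 h before drug addition in a screen at 0.2% final DMSO. Controls were drug-free wells (negative) and 5 µM staurosporine (positive).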

PaTu-8988-T [2] = tested on: PaTu-8988-T; design: Viability of PDAC cell lines, ATPlite luminescence, 11-dose single-agent curve fit; conditions: Homo sapiens, PaTu 8988t, 72 h, read-out: EC50 [nM]
How it was run: as §1

HuP-T4 = tested on: HuP-T4; design: Viability of PDAC cell lines, ATPlite luminescence, 11-dose single-agent curve fit; conditions: Homo sapiens, HuP-T4, 72 h, read-out: EC50 [nM]
How it was run: as §1

AsPC-1 [3] = tested on: AsPC-1; design: Viability of PDAC cell lines, ATPlite luminescence, 11-dose single-agent curve fit; conditions: Homo sapiens, ASPC1, 72 h, read-out: EC50 [nM]
How it was run: as §1

BxPC-3 [4] = tested on: BxPC-3; design: Viability of PDAC cell lines, ATPlite luminescence, 11-dose single-agent curve fit; conditions: Homo sapiens, BXPC-3, 72 h, read-out: EC50 [nM]
How it was run: as §1

HPDE [5] = tested on: HPDE; design: Viability of PDAC cell lines, ATPlite luminescence, 11-dose single-agent curve fit; conditions: HPDE, 72 h, read-out: EC50 [nM]
How it was run: as §1

Capan-1 [6] = tested on: Capan-1; design: ATPlite luminescence viability of PDAC cell lines, 11-dose single-agent curves, 4-parameter fit; conditions: Homo sapiens, CAPAN-1, 72 h, read-out: EC50 [nM]
How it was run: (§2)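 cells (1000 to 5000 per well) seeded 24 h before drug addition in a combination screen at 0.2% final DMSO. Controls were drug-free wells (negative) and 5 µM staurosporine (positive).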

PSN-1 [7] = tested on: PSN-1; design: ATPlite luminescence viability of PDAC cell lines, 11-dose single-agent curves, 4-parameter fit; conditions: Homo sapiens, PSN1, 72 h, read-out: EC50 [nM]
How it was run: as §2

MiaPaCa-2 [8] = tested on: MiaPaCa-2; design: ATPlite luminescence viability of PDAC cell lines, 11-dose single-agent curves, 4-parameter fit; conditions: Homo sapiens, MIA PaCa-2, 72 h, read-out: EC50 [nM]
How it was run: as §2

Dan-G [9] = tested on: Dan-G; design: ATPlite luminescence viability of PDAC cell lines, 11-dose single-agent curves, 4-parameter fit; conditions: 72 h, read-out: EC50 [nM]
How it was run: as §2

Colo-357 [10] = tested on: Colo-357; design: ATPlite luminescence viability of PDAC cell lines, 11-dose single-agent curves, 4-parameter fit; conditions: Homo sapiens, COLO357, 72 h, read-out: EC50 [nM]
How it was run: as §2

Suit2-07 [11] = tested on: Suit2-07; design: ATPlite luminescence viability of PDAC cell lines, 11-dose single-agent curves, 4-parameter fit; conditions: 72 h, read-out: EC50 [nM]
How it was run: as §2

FAMPAC [12] = tested on: FAMPAC; design: ATPlite luminescence viability of PDAC cell lines, 11-dose single-agent curves, 4-parameter fit; conditions: 72 h, read-out: EC50 [nM]
How it was run: as §2

Capan-1 [13] = tested on: Capan-1; design: Viability of PDAC cell lines, ATPlite luminescence, 11-dose single-agent curve fit; conditions: Homo sapiens, CAPAN-1, 72 h, read-out: EC50 [nM]
How it was run: as §1

PANC-1 [14] = tested on: PANC-1; design: ATPlite luminescence viability of PDAC cell lines, 11-dose single-agent curves, 4-parameter fit; conditions: Homo sapiens, PANC-1, 72 h, read-out: EC50 [nM]
How it was run: as §2

PaTu-8988-T [15] = tested on: PaTu-8988-T; design: ATPlite luminescence viability of PDAC cell lines, 11-dose single-agent curves, 4-parameter fit; conditions: Homo sapiens, PaTu 8988t, 72 h, read-out: EC50 [nM]
How it was run: as §2

AsPC-1 [16] = tested on: AsPC-1; design: ATPlite luminescence viability of PDAC cell lines, 11-dose single-agent curves, 4-parameter fit; conditions: Homo sapiens, ASPC1, 72 h, read-out: EC50 [nM]
How it was run: as §2

BxPC-3 [17] = tested on: BxPC-3; design: ATPlite luminescence viability of PDAC cell lines, 11-dose single-agent curves, 4-parameter fit; conditions: Homo sapiens, BXPC-3, 72 h, read-out: EC50 [nM]
How it was run: as §2

HPDE [18] = tested on: HPDE; design: ATPlite luminescence viability of PDAC cell lines, 11-dose single-agent curves, 4-parameter fit; conditions: HPDE, 72 h, read-out: EC50 [nM]
How it was run: as §2

Suit2-07 [19] = tested on: Suit2-07; design: Viability of PDAC cell lines, ATPlite luminescence, 11-dose single-agent curve fit; conditions: 72 h, read-out: EC50 [nM]
How it was run: as §1

PSN-1 [20] = tested on: PSN-1; design: Viability of PDAC cell lines, ATPlite luminescence, 11-dose single-agent curve fit; conditions: Homo sapiens, PSN1, 72 h, read-out: EC50 [nM]
How it was run: as §1

MiaPaCa-2 [21] = tested on: MiaPaCa-2; design: Viability of PDAC cell lines, ATPlite luminescence, 11-dose single-agent curve fit; conditions: Homo sapiens, MIA PaCa-2, 72 h, read-out: EC50 [nM]
How it was run: as §1

Dan-G [22] = tested on: Dan-G; design: Viability of PDAC cell lines, ATPlite luminescence, 11-dose single-agent curve fit; conditions: 72 h, read-out: EC50 [nM]
How it was run: as §1

FAMPAC [23] = tested on: FAMPAC; design: Viability of PDAC cell lines, ATPlite luminescence, 11-dose single-agent curve fit; conditions: 72 h, read-out: EC50 [nM]
How it was run: as §1

Colo-357 [24] = tested on: Colo-357; design: Viability of PDAC cell lines, ATPlite luminescence, 11-dose single-agent curve fit; conditions: Homo sapiens, COLO357, 72 h, read-out: EC50 [nM]
How it was run: as §1

EC50 (PANC-1 [1]) [nM] | EC50 (AsPC-1 [3]) [nM] | EC50 (MiaPaCa-2 [8]) [nM] | EC50 (Colo-357 [10]) [nM] | EC50 (PANC-1 [14]) [nM] | EC50 (AsPC-1 [16]) [nM] | EC50 (BxPC-3 [17]) [nM] | SMILES | EC50 (PaTu-8988-T [2]) [nM] | EC50 (HuP-T4) [nM] | EC50 (HPDE [5]) [nM] | EC50 (Capan-1 [6]) [nM] | EC50 (PSN-1 [7]) [nM] | EC50 (Dan-G [9]) [nM] | EC50 (Suit2-07 [11]) [nM] | EC50 (FAMPAC [12]) [nM] | EC50 (Capan-1 [13]) [nM] | EC50 (PaTu-8988-T [15]) [nM] | EC50 (HPDE [18]) [nM] | also measured
3580 | > 10000 | 2020 | 1160 |  |  |  | NC(=O)c1cccc2cn(-c3ccc([C@@H]4CCCNC4)cc3)nc12 [Niraparib] | 4150 | 10.5 | 4720 | 3180 | 1740 | 1710 | 1010 | 3370 |  |  |  | EC50 (BxPC-3 [4]): 1010 nM
 |  | 840 | 3820 | > 10000 | 7880 | > 10000 | C[C@@H](Oc1cc(-c2cnn(C3CCNCC3)c2)cnc1N)c1c(Cl)ccc(F)c1Cl [Crizotinib] |  | 2760 |  |  | 10200 | 2500 | 2260 | 5990 | 1780 | > 10000 | 8110 | 
> 10000 | 6600 | > 10000 | 6590 |  |  | > 10000 | COc1cc2nccc(Oc3ccc(NC(=O)Nc4cc(C)on4)c(Cl)c3)c2cc1OC [Tivozanib] |  | 4120 | > 10000 | 9830 | 5040 | > 10000 |  | > 10000 |  | > 10000 |  | EC50 (Suit2-07 [19]): > 10000 nM
 |  | 313 | 536 | 389 | 346 |  | O=C1NC(=O)[C@@H](c2cn3c4c(cccc24)CCC3)[C@@H]1c1c[nH]c2ccccc12 [Tivantinib] |  | > 10000 | 143 | 603 | 215 | 412 | 191 | 317 |  | 347 |  | 
4520 | 1470 |  | > 10000 |  |  |  | O=C(Nc1ccc(OC(F)(F)Cl)cc1)c1cnc(N2CC[C@@H](O)C2)c(-c2cc[nH]n2)c1 [Asciminib] | 1350 | 3860 | 4830 | 3820 |  |  |  |  |  |  |  | EC50 (PSN-1 [20]): 1730 nM; EC50 (MiaPaCa-2 [21]): 2770 nM; EC50 (Dan-G [22]): 7610 nM; EC50 (Suit2-07 [19]): 3.54 nM; EC50 (BxPC-3 [4]): 794 nM; EC50 (FAMPAC [23]): > 10000 nM
 | > 10000 | 2990 | > 10000 | 2590 |  |  | CCCCCCCCCCCCCCCCCCOP(=O)([O-])OC1CC[N+](C)(C)CC1 [Perifosine] | 9320 | 0.04 |  |  | 2340 |  | 2140 | 3030 | > 10000 |  | 1280 | EC50 (Dan-G [22]): > 10000 nM; EC50 (BxPC-3 [4]): 1410 nM
142 | 4140 | 51.6 |  |  |  | 863 | CN1CCN(CCOc2cc(OC3CCOCC3)c3c(Nc4c(Cl)ccc5c4OCO5)ncnc3c2)CC1 [Saracatinib] | 244 | > 10000 |  | 2210 |  | 1160 | 1340 | 4910 |  |  | 1430 | EC50 (PSN-1 [20]): 4260 nM; EC50 (Colo-357 [24]): 869 nM
 |  | 7010 | 11.5 | 3.11 | > 10000 | 10300 | CN1CCC(COc2cnc(-c3cccc(Cn4nc(-c5cccc(C#N)c5)ccc4=O)c3)nc2)CC1 [Tepotinib] |  | 268 | 7650 | 23.4 | 4160 | 8.91 | 7810 | > 10000 |  | 6390 |  | 
> 10000 |  | 1010 | 6410 |  | > 10000 | 5990 | CN(C)CCCOc1ccc(-c2ccc3ncc4c(c3c2)n(C2CCOCC2)c(=O)n4C)cn1 [AZD-0156] |  |  |  |  | 3260 |  | 1960 | 1890 | > 10000 | 606 | 10400 | EC50 (Dan-G [22]): 4160 nM
3860 |  | > 10000 | 6050 |  | > 10000 | 3600 | COc1cc2/c(=N/c3ccc(Br)cc3F)nc[nH]c2cc1OCC1CCN(C)CC1 [Vandetanib] |  | 23.9 |  |  |  | > 10000 | > 10000 | > 10000 | > 10000 | > 10000 | 1520 | EC50 (PSN-1 [20]): > 10000 nM
 |  | 4480 |  | > 10000 | 2150 | 7410 | CNC(=O)c1cc(Oc2ccc(NC(=O)Nc3ccc(Cl)c(C(F)(F)F)c3)c(F)c2)ccn1 [Regorafenib] |  | > 10000 |  | 6350 | 1430 | 4480 | > 10000 | > 10000 |  | > 10000 | 9210 | EC50 (Colo-357 [24]): 7480 nM
95.6 | 405 | 87 | 291 |  |  | 848 | COc1cc(Nc2ncc3c(n2)-c2ccc(Cl)cc2C(c2c(F)cccc2OC)=NC3)ccc1C(=O)O [Alisertib] | 274 | 64.4 | 2700 | 427 | 846 | 914 |  | 68.6 |  |  |  | EC50 (Suit2-07 [19]): 272 nM
7780 | > 10000 | > 10000 |  |  |  | 10200 | CNC(=O)c1cc(Oc2ccc(NC(=O)Nc3ccc(Cl)c(C(F)(F)F)c3)cc2)ccn1 [Sorafenib] |  | 10200 |  | 8320 | 3820 | 7810 | 9770 | > 10000 |  | > 10000 | 7960 | EC50 (Colo-357 [24]): 4370 nM
 |  | 324 | 256 | 313 | 863 | 63.2 | COc1cc(OC)c(/C=C/S(=O)(=O)Cc2ccc(OC)c(NCC(=O)O)c2)c(OC)c1 [Rigosertib] |  | 809 | 48.2 | 178 | 86.5 | 66 | 2170 | 28.2 |  | 607 |  | 
> 10000 |  | 2340 |  |  | > 10000 | 2840 | CCN(CC)CCNC(=O)c1c(C)[nH]c(/C=C2\C(=O)Nc3ccc(F)cc32)c1C [Sunitinib] |  | 114 |  |  | 5160 | 4120 | 3180 | 5670 | > 10000 | 2190 | 5050 | EC50 (Colo-357 [24]): 10100 nM
